Data as given in ChEMBL document CHEMBL1201862, “PubChem BioAssay data set” (2004).
Active and inactive are the calls of the source.

Experiments:
Bcl-2-related protein A1 [1] = target: T1, Bcl-2-related protein A1 (Mus musculus, UniProt Q07440); test: Bfl-1 inhibitors, primary screen, biochemical, fluorescence polarization, FITC-Bid, mouse (AID 432)
T1 sequence (Q07440 whole entry): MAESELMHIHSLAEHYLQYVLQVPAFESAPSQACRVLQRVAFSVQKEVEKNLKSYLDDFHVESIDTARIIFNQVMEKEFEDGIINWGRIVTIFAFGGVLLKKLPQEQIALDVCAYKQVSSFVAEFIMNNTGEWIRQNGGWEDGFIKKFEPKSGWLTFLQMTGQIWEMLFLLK

Bcl-2-related protein A1 [2] = target: T1, Bcl-2-related protein A1; test: Bfl-1 inhibitors blocking BH3 peptide binding, confirmation, biochemical, TR-FRET, mouse Bfl-1 (AID 621);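 also: TR-FRET binding of GST-Bfl-1 to FITC-labelled Bid peptide via terbium antibody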
[3] = target: Heat shock protein HSP 90-alpha (Homo sapiens, UniProt P07900); test: Luminescence-based dose response biochemical high throughput screening assay for inhibitors of the Heat Shock Protein 90 (HSP90). [Related pubchem assays: 1831 (Summary AID.), 1846 (Confirmation screen.), 1789 (Primary screen.)]
cells [4] = type: functional
Paired box protein Pax-8 = Paired box protein Pax-8 (Homo sapiens, UniProt Q06710); test: inhibitors of PAX8-driven TPO luciferase reporter, dose response, RMG-I cells, cherry-pick (AID 687027); type: functional, cell-based;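 also: luciferase reporter driven by Pax8 target thyroperoxidase promoter measured by SteadyGlo luminescence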
[5] = Luminescence Cell-Based Dose Confirmation HTS to Identify Inhibitors of Platelet Dense Granule Release. [Related pubchem assays: 1663 (Primary HTS), 1678 (Summary of Project)]; type: functional
[6] = MC4R antagonists, dose response, counter-screen for LGR2 antagonist project, cell-based, plate reader, cherry pick (AID 743444); type: functional;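 also: transfected HEK 293 cells stimulated with alpha-MSH peptide; potency of inhibitors of the alpha-MSH evoked signal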
[7] = A549 cell cytotoxicity, dose response, cytotoxicity control, plate reader, cherry-pick, antagonist series (AID 743412); type: functional, cell-based
[8] = HEK293 cell cytotoxicity, dose response, cytotoxicity control, plate reader, cherry-picked samples (AID 743446); type: functional, cell-based
[9] = control 3'UTR Renilla luciferase suppression, dose response, counter-screen for Shn3 inhibitor project, cell-based, Clone20-Shn3RL, cherry-picked (AID 624133); type: functional
[10] = P. falciparum late gametocyte killing, dose response, luminescence (AID 1117278); type: functional, cell-based;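 also: gametocytes exposed to compound for 24 hours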
BJ [11] = test: cytotoxicity toward Ras-transformed BJeLR fibroblasts, dose response, cell-based, alamar blue fluorescence, cherrypicked samples (AID 2631); type: functional; conditions: Homo sapiens;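 also: confirmatory dose-response assay in RAS-dependent BJ fibroblasts engineered with TERT, LT and ST, with cytotoxicity read by fluorescence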
[12] = cytotoxicity toward DRD oncogenic fibroblasts, dose response, cell-based, non-viral oncogenic, luminescence (AID 1934); type: functional; conditions: Homo sapiens
[13] = target: Luciferin 4-monooxygenase (Photinus pyralis, UniProt P08659); test: firefly luciferase enzyme inhibitors, dose response, biochemical, luminescence (AID 1891)
[14] = HepG2 cell cytotoxicity, dose response, cytotoxicity control for Shn3 inhibitor project, CellTiter-Glo, cherry-picked (AID 624134); type: functional, cell-based
BJ [15] = test: cytotoxicity toward BJ-TERT fibroblasts, dose response, cell-based, RAS-independent, luminescence (AID 1933); type: functional; conditions: Homo sapiens
[16] = HepG2 cell cytotoxicity, dose response, cytotoxicity control, plate reader, cherry-pick, antagonist series (AID 743416); type: functional, cell-based
[17] = non-specific cell cytotoxicity, dose response, cytotoxicity control for PAX8 inhibitor project, plate reader, dry powder samples (AID 743021); type: functional, cell-based
[18] = Jurkat T cell cytotoxicity, dose response, cytotoxicity control for P. falciparum gametocyte viability project, luminescence (AID 1117277); type: functional, cell-based;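 also: potency reflects loss of cellular ATP meaning fewer viable cells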
[19] = Shn3 3'UTR reporter inhibitors, dose response, cell-based, Clone20 osteoblasts, firefly luciferase, cherry-picked (AID 624132); type: functional;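 also: firefly luciferase luminescence from reporter carrying the Shn3 3'UTR in osteoblasts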
[20] = LGR2 antagonists, dose response, cell-based, HEK293, CRE-luciferase reporter, cherry pick, set 2 (AID 743343); type: functional;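 also: transfected cells were stimulated with diluted bursicon conditioned medium after compound addition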
BJ [21] = test: cytotoxicity toward BJ-TERT-LT-ST fibroblasts, dose response, cell-based, RAS-independent, luminescence (AID 1935); type: functional; conditions: Homo sapiens;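 also: BJ fibroblasts immortalized with TERT plus LT and ST oncogenes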
BJ [22] = test: cells; type: functional, cell-based; conditions: Homo sapiens
Cytochrome P450 3A4 = Cytochrome P450 3A4 (Homo sapiens, UniProt P08684);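 also: CYP3A4 tested as one member of a cytochrome P450 panel screen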
Cytochrome P450 2C19 = Cytochrome P450 2C19 (Homo sapiens, UniProt P33261); test: Cytochrome panel assay with activity outcomes. Panel member name: p450-cyp2c19 Compounds with AC50 equal or less than 10 uM are considered active; type: functional; conditions: read-out: AC50
Streptokinase A = target: T2, Streptokinase A (Streptococcus pyogenes serotype M1, UniProt P10520); test: S. pyogenes streptokinase expression inhibitors, potency, dose response, plasminogen activation absorbance, OD405 (AID 1914); type: functional, Streptococcus pyogenes M1 GAS;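 also: secreted streptokinase activity via plasminogen activation per viability signal from cell pellet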
T2 sequence (P10520 whole entry): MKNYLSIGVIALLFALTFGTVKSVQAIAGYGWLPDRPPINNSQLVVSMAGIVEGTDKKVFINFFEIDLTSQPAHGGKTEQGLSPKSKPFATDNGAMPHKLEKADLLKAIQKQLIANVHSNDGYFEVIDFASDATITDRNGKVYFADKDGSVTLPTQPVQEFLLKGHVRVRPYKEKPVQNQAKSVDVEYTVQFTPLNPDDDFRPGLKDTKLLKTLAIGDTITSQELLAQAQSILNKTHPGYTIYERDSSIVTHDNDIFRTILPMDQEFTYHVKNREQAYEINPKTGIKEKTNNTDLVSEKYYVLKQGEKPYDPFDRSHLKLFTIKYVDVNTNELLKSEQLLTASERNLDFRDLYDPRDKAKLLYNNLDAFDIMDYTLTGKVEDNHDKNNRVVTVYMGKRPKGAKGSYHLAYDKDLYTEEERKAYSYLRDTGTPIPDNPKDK

Streptococcus = test: Group A Streptococcus viability loss, dose response, counter-screen for streptokinase expression inhibitor project, luminescence, BacTiterGlo (AID 1915); type: functional, organism-based;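 also: potency for reduction of bacterial viability or growth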
Cytochrome P450 1A2 = target: T3, Cytochrome P450 1A2 (Homo sapiens, UniProt P05177);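 also: PubChem cytochrome P450 panel assay, CYP1A2 panel member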
T3 sequence (P05177 whole entry): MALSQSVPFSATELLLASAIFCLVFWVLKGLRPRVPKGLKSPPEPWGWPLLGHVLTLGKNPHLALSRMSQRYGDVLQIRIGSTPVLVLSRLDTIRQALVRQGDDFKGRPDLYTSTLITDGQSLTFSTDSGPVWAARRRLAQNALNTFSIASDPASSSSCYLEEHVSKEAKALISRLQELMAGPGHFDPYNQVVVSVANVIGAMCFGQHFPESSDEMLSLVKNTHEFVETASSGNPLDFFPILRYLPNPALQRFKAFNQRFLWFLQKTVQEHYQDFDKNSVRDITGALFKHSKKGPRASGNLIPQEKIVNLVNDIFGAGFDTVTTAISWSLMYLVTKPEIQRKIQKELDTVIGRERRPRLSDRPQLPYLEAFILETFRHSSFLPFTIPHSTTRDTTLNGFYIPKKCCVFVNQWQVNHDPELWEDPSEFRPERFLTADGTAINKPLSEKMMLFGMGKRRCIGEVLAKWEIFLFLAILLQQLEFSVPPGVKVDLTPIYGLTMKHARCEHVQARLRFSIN

[23] = target: G-protein coupled receptor 55 (Homo sapiens, UniProt Q9Y2T6); test: GPR55 antagonists blocking LPI-driven arrestin recruitment, primary screen, imaging, U2OS, beta-arrestin-GFP, LPI agonist (AID 2013); type: functional;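 also: antagonist potency measured as reduced agonist-driven arrestin aggregation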
[24] = target: Voltage-gated inwardly rectifying potassium channel KCNH2 (Homo sapiens, UniProt Q12809); test: hERG protection from proarrhythmic block, potency, dose response, cell-based, thallium flux (AID 2121); type: ADME
[25] = tested on: Streptococcus sp. 'group A'; test: growth inhibition of control SK(-) GAS strain, dose response, counter-screen for streptokinase expression inhibitor project, luminescence, kanamycin, BacTiterGlo, confirmation (AID 1900); type: functional, organism-based
cells [26] = type: functional, cell-based
Fatty acid synthase [27] = target: T4, Fatty acid synthase (Homo sapiens, UniProt P49327); test: FAS thioesterase domain inhibitors, dose response, biochemical, endpoint fluorescence intensity, uHTS hits (AID 624327); type: functional;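 also: fluorescence from hydrolysis of an O-methyl fluorescein acyl ester substrate by the enzyme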
[28] = target: E3 ubiquitin-protein ligase Mdm2 (Homo sapiens, UniProt Q00987); test: enhancers of MDM2-luciferase reporter signal, concentration-effect titration, project on inhibitors of MDM2 ubiquitin ligase, cellular assay, luminescent readout, 384-well plate format (AID 1394); type: functional;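 also: MDM2 E3 inhibitors raise luminescence so EC50 is for signal enhancement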
Fatty acid synthase [29] = target: T4, Fatty acid synthase; test: FAS thioesterase domain inhibitors, dose response, biochemical, kinetic fluorescence intensity (AID 624326); type: functional;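 also: rate of fluorescence rise from hydrolysis of a fluorogenic O-methyl fluorescein ester substrate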
cells [30] = type: functional, cell-based; remark: listed apart in the source

T4 sequence (P49327 whole entry, the tested form may be a part): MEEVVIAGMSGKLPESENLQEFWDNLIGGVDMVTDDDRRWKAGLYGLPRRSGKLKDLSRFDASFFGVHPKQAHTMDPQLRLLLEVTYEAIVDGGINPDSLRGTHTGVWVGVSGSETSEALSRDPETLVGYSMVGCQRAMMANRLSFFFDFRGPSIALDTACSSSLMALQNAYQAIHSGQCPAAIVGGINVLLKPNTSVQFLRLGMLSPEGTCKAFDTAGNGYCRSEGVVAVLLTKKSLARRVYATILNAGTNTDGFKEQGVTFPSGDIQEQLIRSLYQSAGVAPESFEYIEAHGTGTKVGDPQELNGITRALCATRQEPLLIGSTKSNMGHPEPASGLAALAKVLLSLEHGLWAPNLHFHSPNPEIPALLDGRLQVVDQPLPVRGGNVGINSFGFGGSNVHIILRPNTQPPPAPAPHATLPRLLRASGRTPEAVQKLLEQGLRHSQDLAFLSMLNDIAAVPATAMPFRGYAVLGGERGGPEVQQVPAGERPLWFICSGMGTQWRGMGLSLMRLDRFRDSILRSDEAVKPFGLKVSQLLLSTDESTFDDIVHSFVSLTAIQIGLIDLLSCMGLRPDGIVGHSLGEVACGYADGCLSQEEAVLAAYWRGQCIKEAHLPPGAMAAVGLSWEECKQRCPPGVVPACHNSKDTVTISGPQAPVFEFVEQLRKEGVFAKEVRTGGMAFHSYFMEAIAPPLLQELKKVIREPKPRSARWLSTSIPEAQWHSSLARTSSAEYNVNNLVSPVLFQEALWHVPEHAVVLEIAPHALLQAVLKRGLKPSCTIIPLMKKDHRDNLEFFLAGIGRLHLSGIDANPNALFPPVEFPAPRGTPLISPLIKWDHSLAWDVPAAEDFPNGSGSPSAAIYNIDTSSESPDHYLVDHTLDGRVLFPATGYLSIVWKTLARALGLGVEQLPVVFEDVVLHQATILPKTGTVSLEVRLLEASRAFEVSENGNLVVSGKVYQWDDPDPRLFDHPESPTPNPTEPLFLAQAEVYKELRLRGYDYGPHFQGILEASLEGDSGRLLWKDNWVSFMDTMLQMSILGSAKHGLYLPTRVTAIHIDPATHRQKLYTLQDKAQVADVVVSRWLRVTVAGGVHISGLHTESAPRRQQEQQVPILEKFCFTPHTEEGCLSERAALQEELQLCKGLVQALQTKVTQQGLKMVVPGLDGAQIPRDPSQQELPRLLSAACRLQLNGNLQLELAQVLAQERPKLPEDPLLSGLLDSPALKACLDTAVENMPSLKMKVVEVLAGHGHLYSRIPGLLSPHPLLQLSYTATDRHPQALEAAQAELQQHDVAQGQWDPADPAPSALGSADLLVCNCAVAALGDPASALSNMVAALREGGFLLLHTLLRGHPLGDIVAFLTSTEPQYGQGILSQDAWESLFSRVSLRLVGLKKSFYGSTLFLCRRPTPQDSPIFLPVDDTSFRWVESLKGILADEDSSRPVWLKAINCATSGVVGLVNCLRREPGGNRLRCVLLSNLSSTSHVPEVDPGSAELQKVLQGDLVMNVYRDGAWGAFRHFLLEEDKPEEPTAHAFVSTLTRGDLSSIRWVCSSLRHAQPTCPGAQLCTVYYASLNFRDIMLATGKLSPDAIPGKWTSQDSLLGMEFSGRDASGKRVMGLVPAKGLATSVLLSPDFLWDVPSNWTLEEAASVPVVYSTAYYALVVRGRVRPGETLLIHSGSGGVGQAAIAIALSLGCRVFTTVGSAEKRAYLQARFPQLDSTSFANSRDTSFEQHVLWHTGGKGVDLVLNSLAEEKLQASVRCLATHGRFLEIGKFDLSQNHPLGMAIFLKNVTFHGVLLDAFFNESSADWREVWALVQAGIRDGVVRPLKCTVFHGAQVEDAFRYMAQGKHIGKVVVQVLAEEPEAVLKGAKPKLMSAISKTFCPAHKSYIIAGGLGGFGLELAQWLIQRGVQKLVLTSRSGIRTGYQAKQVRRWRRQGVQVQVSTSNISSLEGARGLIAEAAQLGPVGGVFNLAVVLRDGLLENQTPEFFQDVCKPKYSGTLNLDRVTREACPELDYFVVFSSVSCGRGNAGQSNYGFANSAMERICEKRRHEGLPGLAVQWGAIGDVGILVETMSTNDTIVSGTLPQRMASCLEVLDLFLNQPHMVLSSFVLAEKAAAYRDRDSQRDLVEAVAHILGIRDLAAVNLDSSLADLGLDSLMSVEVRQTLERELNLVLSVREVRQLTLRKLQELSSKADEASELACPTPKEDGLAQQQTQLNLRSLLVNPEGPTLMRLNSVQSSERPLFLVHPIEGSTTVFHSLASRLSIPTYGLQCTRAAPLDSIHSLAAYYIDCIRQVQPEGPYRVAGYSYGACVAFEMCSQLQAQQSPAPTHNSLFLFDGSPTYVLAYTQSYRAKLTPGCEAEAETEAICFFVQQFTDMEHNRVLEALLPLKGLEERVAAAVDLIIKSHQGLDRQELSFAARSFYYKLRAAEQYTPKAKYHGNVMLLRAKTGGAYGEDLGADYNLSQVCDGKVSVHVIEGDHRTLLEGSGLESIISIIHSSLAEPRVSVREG
E3 ubiquitin-protein ligase Mdm2, sequence (Q00987 whole entry, the tested form may be a part): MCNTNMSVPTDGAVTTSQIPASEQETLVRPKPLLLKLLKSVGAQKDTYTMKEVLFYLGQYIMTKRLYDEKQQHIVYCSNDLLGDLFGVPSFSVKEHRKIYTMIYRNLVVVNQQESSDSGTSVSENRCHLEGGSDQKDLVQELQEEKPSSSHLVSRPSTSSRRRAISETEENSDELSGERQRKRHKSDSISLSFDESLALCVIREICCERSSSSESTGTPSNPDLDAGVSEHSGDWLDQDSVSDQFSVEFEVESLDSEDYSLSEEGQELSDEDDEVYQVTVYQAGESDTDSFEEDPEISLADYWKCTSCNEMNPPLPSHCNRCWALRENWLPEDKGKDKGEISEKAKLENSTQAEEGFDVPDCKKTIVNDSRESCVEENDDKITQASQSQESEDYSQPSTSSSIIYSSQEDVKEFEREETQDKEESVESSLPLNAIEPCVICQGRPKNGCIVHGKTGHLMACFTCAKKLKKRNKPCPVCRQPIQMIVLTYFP
Paired box protein Pax-8, sequence (Q06710 whole entry): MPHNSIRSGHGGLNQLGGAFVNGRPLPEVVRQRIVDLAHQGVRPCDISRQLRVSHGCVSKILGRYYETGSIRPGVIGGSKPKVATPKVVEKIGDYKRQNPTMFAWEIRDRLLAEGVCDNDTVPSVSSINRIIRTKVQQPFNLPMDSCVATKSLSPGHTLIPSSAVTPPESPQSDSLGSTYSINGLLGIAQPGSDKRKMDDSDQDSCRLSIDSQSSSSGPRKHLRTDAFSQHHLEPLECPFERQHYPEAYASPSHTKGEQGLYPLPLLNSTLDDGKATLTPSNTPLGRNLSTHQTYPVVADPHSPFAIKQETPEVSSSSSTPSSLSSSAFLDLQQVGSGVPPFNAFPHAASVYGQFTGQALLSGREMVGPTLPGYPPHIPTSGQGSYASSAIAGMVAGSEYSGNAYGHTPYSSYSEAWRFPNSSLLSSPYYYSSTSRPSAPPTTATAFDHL
G-protein coupled receptor 55, sequence (Q9Y2T6 whole entry): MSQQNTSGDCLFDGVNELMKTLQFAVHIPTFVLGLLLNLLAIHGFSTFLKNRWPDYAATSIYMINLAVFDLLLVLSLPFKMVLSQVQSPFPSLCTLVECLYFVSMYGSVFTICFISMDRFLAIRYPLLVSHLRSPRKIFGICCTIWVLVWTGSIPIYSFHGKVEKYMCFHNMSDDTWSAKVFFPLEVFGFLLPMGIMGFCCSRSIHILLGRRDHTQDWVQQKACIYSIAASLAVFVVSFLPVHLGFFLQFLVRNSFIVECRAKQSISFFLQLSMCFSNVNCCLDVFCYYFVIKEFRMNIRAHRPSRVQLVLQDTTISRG
Cytochrome P450 2C19, sequence (P33261 whole entry): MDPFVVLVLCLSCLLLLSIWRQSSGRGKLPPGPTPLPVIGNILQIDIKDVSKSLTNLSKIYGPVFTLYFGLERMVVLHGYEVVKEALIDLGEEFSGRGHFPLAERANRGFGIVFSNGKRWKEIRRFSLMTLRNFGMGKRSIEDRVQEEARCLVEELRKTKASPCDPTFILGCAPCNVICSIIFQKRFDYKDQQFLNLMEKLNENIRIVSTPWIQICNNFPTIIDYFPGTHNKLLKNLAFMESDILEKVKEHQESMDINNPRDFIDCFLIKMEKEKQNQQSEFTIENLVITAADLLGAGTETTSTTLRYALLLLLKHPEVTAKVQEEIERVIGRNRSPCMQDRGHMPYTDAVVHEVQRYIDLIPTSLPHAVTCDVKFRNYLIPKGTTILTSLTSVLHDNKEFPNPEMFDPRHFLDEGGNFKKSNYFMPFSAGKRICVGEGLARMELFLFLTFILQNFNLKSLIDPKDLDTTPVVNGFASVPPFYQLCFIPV
Luciferin 4-monooxygenase, sequence (P08659 whole entry): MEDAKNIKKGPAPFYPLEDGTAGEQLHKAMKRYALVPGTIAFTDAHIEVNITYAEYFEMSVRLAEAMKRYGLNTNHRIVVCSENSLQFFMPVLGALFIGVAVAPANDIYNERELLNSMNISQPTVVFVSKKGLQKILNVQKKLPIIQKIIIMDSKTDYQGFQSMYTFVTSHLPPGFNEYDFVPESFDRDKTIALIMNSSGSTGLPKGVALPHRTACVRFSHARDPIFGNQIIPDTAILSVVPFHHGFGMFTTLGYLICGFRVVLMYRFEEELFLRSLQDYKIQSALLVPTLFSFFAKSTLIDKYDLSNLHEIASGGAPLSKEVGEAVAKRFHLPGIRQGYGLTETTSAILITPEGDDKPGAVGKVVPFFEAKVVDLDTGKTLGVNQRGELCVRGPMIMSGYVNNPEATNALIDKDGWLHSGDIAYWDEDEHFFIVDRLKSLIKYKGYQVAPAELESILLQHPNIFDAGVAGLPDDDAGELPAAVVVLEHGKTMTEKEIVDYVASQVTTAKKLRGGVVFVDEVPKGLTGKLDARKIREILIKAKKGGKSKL

In the case of `Cc1nn(C)c(C)c1NC(=O)CSc1nc(-c2ccccc2F)nc2c1cnn2-c1ccccc1`, the IC50 (Bcl-2-related protein A1 [1]) is reported as > 100 µM (not active) and the IC50 (Bcl-2-related protein A1 [2]) is reported as > 100 µM (not active).
For `CCOC(=O)c1csc(COc2ccc(OC)cc2)n1`, the IC50 [3] was 8.03 µM (active) and the IC50 (cells [4]) was 47.7 µM (active).
With `O=c1c2ccccc2cnn1-c1nc2ccccc2[nH]1` the AC50 (Paired box protein Pax-8) was 1.65 µM (active), the EC50 [5] was 144 nM (active) and the AC50 [6] was 288 nM (active). For the same compound, the AC50 [7] was 2.6 µM (active), the AC50 [8] was 2.23 µM (active) and the AC50 [9] was 27.2 µM (active). For the same compound, the IC50 [10] was 15.2 µM (inactive), the EC50 (BJ [11]) was > 133 µM (inactive) and the EC50 [12] was 5.22 µM (active). For the same compound, the EC50 [13] was 1.16 µM (active), the AC50 [14] was 12.1 µM (active) and the EC50 (BJ [15]) was 5.15 µM (active). The AC50 [16] was 8.61 µM (active), the AC50 [17] was 3.39 µM (active) and the IC50 [18] was 3.98 µM (active). The AC50 [19] was 1.33 µM (active), the AC50 [20] was 275 nM (active) and the EC50 (BJ [21]) was 4.79 µM (active). For the same compound, the EC50 (BJ [22]) was 4.94 µM (active).
For `COc1ccc(/C=C2/SC(N/N=C3\CC4CCC3(C)C4(C)C)=NC2=O)cc1` (stereo unspecified), the AC50 (Cytochrome P450 3A4) was 12.6 µM (inconclusive), the AC50 (Cytochrome P450 2C19) was 20 µM (inconclusive) and the EC50 (Streptokinase A) was > 150 µM (not active). The EC50 (Streptococcus) was > 150 µM (not active), the AC50 (Cytochrome P450 1A2) was 14.1 µM (inconclusive) and the IC50 [23] was 6 µM (active). For the same compound, the EC50 [24] was 220 nM (active) and the EC50 [25] was 3.92 µM (active).
With `COCCn1/c(=N/C(=O)c2ccc(S(=O)(=O)N3CCCc4ccccc43)cc2)sc2cc(S(C)(=O)=O)ccc21` the EC50 (cells [26]) was > 350 µM (not active), the IC50 (Fatty acid synthase [27]) was 45.9 µM (inactive) and the EC50 [28] was 1.03 µM (not active). The IC50 (Fatty acid synthase [29]) was 64.5 µM (inactive) and the EC50 (cells [30]) was 298 µM (active).
